Reference: patent US20110293756A1, “PREVENTIVES OR REMEDIES FOR TUMOR OR HUMAN PAPILLOMAVIRAL DISEASE” (priority 2001, published 2011)

Columns and labels:
CIN I or CIN II = conditions: 10 mg/day, 154 cases, 6 months; cited from earlier work
[1] = system: cervical carcinoma in situ (CIS); test: Clinical test in cervical carcinoma in situ (CIS), stage 0; type: in vivo, human; conditions: 2 to 6 weeks of administration; extracts 2 g/day, folic acid 15 mg/day; group A 21, B 15 (8+7), C 8, D 12, E 11 cases; control 0 of 42
Experimental: A method for the clinical testing was performed in the manner described below under sufficient informed consent. Colposcopy was performed for patients who had been diagnosed to be class IV or V based on the cytobiosis of cervical cancer, portions of their lesions were subjected to biopsy, and then administration of various pharmaceutical preparations was immediately started. Test groups are as shown below. Each group was observed. […]

[2] = system: koilocytic atypia, mild dysplasia and moderate dysplasia; conditions: 5 mg/day, 331 patients, six months; cited from earlier work
[3] = system: cervical dysplasia (CIN1, CIN2); test: Clinical test in cervical dysplasia CIN1 / CIN2; type: in vivo, human; conditions: 2 months after administration; extracts 2 g/day, folic acid 15 mg/day; Yokunin 8, hot water 3, ethanol 3, folic acid 5, enzyme/fermentation 6, with folic acid 8 cases; untreated 0 of 15
Experimental: According to the CIN classification, CIN1 and CIN2 correspond to mild dysplasia and moderate dysplasia, respectively, and CIN3 includes severe dysplasia and the above CIS. Here, the clinical effect of the pharmaceutical preparations of the present invention against the CIN1 and CIN2 is presented.
A test was conducted for cases, which had been diagnosed to be class III by cytological diagnosis and as having mild dysplasia or moderate dysplasia by histological diagnosis, and carefully followed up without conization, and for which informed consent had been obtained.
Further, the enzyme extract of Coix seeds with husks (3 cases)- or the fermentation extract (3 cases) (daily dose of 2 g of the respective extract ingredients)-administered group (6 cases), the enzyme extract of Coix seeds with husks (4 cases) or the fermentation extract (4 cases) (respective daily dose of 2 g as the extract ingredient) compounded with folic acid (15 mg/day)-administered group (8 cases) were observed. […] Test groups are as shown below. Each group was observed.
Each pharmaceutical preparation was administered over a long period (1 year), and cytological diagnosis and colposcopy were performed every 3 to 4 months.

Compound: Nc1nc2ncc(CNc3ccc(C(=O)N[C@@H](CCC(=O)O)C(=O)O)cc3)nc2c(=O)[nH]1 [folic acid]
- effect compared with the group orally administered with placebo (CIN I or CIN II): no difference was also found
- cases showing disappearance of carcinoma in situ in postoperative histological tests [1]: none of the cases
- improving effect compared with the group orally administered with placebo [2]: no difference was found
- cases showing improvement in both cytological diagnosis and colposcopy findings [3]: None of the cases
